Consider two compounds from patent US10822322B2 (OCEANS LTD., priority 2016, dated 2020).

The viability is a read-out of living cells in per cent, often relative to untreated cells.

The test system of data set [1] is THP-1 (acute monocytic leukemia). The experiment in a line: CIMA assay (tetrazolium reduction, cell viability), THP-1. The class given is cell-based, human. The procedure: (§1) Stock solutions of the extracts were prepared in dimethylsulfoxide (DMSO) at 10 mg/mL and stored in 200 μl aliquots at −20° C. until analysis. This preparation ensured that the DMSO delivered to cells in culture never exceeded 1%.
(§2) Prepared extracts were assessed following chronic exposure conditions in which cells were seeded at 2×10^3 cells/well (96 wells-plate) and incubated with test compounds for 72 h. Each compound was evaluated over a range of concentrations (0, 10, 25, 50 or 100 μg/ml). Cell proliferation was initially assessed using a standard colorimetric indicator of metabolic activity (CIMA) assay. In this assay, tetrazole reduction was evaluated as a measure of metabolic function that evaluates mitochondrial activity to determine the extent of cell proliferation within a culture. This assay is based on the reduction of yellow tetrazolium salt to purple formazan by mitochondrial reductases enzyme in viable cells, resulting in a color changed that confers a change in absorbance. Six human cell lines were selected for primary evaluation: U373 (glioblastoma-astrocytoma), A549 (lung carcinoma), THP-1 (acute monocytic leukemia), MCF7 (mammary gland adenocarcinoma), SKOV3 (ovarian adenocarcinoma), and CCD1079SK (fibroblast, noncancerous but proliferating) (see FIG. 2 and Table 2). Table 3 expresses the IC50 for each extract.
(§3) These sub-fractions were again subjected to the bioassay evaluation presented above. Results are expressed in Table 8 as % viability (means±standard deviation of three replicates), with LD50/IC50 values in Table 9. […] The maximum DMSO concentration was 1% at 100 μg/ml with 5% SDS used as a known toxic inducer.

Data set [2] relates to SKOV3 (ovarian adenocarcinoma). The experiment in a line: CIMA assay (tetrazolium reduction, cell viability), SKOV3. The format is cell-based, human. The procedure: as §1, §2, §3
In another data set the test system is A549 (lung carcinoma). Kind of data set: CIMA assay (tetrazolium reduction, cell viability), A549. The class given is cell-based, human. As to the method: as §1, §2, §3
Data set [3] concerns U373 (glioblastoma-astrocytoma). The experiment in a line: CIMA assay (tetrazolium reduction, cell viability), U373. The class given is cell-based, human. As to the method:
as §1, §2, §3

The subject of data set [4] is MCF7 (mammary gland adenocarcinoma). The experiment in a line: CIMA assay (tetrazolium reduction, cell viability), MCF7. The class given is cell-based, human. The procedure:
as §1
as §2, with “extract. […]” for “extract.”

The test system of data set [5] is CCD1079SK (fibroblast, noncancerous but proliferating). Kind of data set: CIMA assay (tetrazolium reduction, cell viability), CCD1079SK. The format is cell-based, human. The procedure: as §1, §2, §3
A further data set concerns PC3. Kind of data set: CIMA assay (tetrazolium reduction, cell viability), PC3. The class given is cell-based.
In another data set the test system is MDA-MB. The experiment in a line: CIMA assay (cell viability), MDA-MB. The class given is cell-based.
Data set [6] is described as follows: CIMA assay (tetrazolium reduction, cell viability), CCD1079SK. The format is cell-based, human. The note with it: human. The procedure:
as §1, §2, §3

The mark [7] stands for this setting: Homo sapiens, THP-1, read-out: average cell viability.
Setting [8] is: Homo sapiens, SK-OV-3, read-out: average cell viability.
Setting [9] is: Homo sapiens, A549, read-out: average cell viability.
Where [10] appears, read: Homo sapiens, U373 MG, read-out: average cell viability.
Where [11] appears, read: Homo sapiens, PC-3, read-out: average cell viability.

On to `CCCCCCCCCCCCOS(=O)(=O)[O-].[Na+]` [SDS 5%, reference compound], for which the “% viability AVG” value amounted to 39.9% in [1]; 90.7% in data set [2]; 66.2% in the data set with A549 (lung carcinoma); 78.5% in [3]; 93.7% in [4]; 87.9% in data set [5]. In addition, the “% viability AVG” value with PC3 is given as 94.4%. Further, the cell viability AVG in the data set with A549 (lung carcinoma) was found to be 68.7%; in the data set on PC3, 77.3%.
As for `CCCCCC(O)C(O)/C=C/C1CCCCCCCC(=O)O1` (stereo not drawn) [compound 31-34-5, 12,13-dihydroxy-10-octadecen-9-olide], the viability at 1 µg/mL in [1] (setting [7]) was found to be 96%; in data set [2] (setting [8]) it was 97%; in the data set with A549 (lung carcinoma) (setting [9]), 95%; in data set [3] (setting [10]), 90%; in the data set with MDA-MB (1 Ug/mL), 101%; in the data set on PC3 (setting [11]), 100%. Further, the viability at 10 µg/mL was determined as 84% in [1] (setting [7]); 97% in data set [2] (setting [8]); 93% in the data set on A549 (lung carcinoma) (setting [9]); 85% in [3] (setting [10]); 96% in the data set on MDA-MB (10 Ug/mL); 93% with PC3 (setting [11]). Moreover, the viability at 50 µg/mL is 68% in data set [1] (setting [7]); 94% in data set [2] (setting [8]); 92% with A549 (lung carcinoma) (setting [9]); 68% in data set [3] (setting [10]); 66% in the data set with MDA-MB (50 Ug/mL); 97% with PC3 (setting [11]). For the same compound, the viability at 100 µg/mL in [1] (setting [7]) was 44%; in data set [2] (setting [8]), 85%; with A549 (lung carcinoma) (setting [9]) it was 61%; in data set [3] (setting [10]) it was 3%; in the data set with MDA-MB (100 Ug/mL) it was 20%; with PC3 (setting [11]), 19%. Moreover, the figures for the “fold change viability (AVG)” value with MDA-MB (10 ug/mL) and in the data set with MDA-MB (50 ug/mL) were 1.05 and 0.72, respectively. Also, the viability at 72 h, 1 µg/mL in data set [6] is 91%. The viability at 72 h, 10 µg/mL in [6] came to 84%. For the same compound, the viability at 72 h, 50 µg/mL in data set [6] amounted to 90%. Also, the viability at 72 h, 100 µg/mL in data set [6] was found to be 17%.
